Measurements reported in patent publication US11780880B2, “High-activity memory-improving derivative peptide and use thereof” (Jilin Agricultural University, priority 2021, dated 2023).
Peptide text beside a SMILES is read from it.

Legend:
[1] = ABTS free radical scavenging assay; type: physicochemical; settings: concentration of 100 μM
Procedure: (1) ABTS free radical scavenging assay: Equal volumes of a 7 mmol/L ABTS aqueous solution and a 2.49 mmol/L potassium persulfate aqueous solution were mixed and left to stand in the dark for 12 h to obtain an ABTS free radical stock solution, which was stored at 4° C. When in use, the stock solution was diluted with 5 mmol/L PBS until the absorbance of the solution was 0.700±0.002 at 734 nm, and an ABTS free radical working solution was prepared. Separately, 10 μL of each of the aqueous solutions of derivative peptides with a concentration of 100 μM was added to a 96-well plate, while glutathione (GSH) of the same concentration was used as a control; these solutions reacted with 190 μL of ABTS free radical working solution accurately for 6 min, and absorbance values (A1) were measured at a wavelength of 734 nm using a microplate reader. The calculation formula for scavenging rate is as follows: […]
where A0 is the absorbance value that replaces the derivative peptide solution with distilled water;
A1 is the absorbance value of the solution adding a derivative peptide or GSH; and
A2 is the absorbance value of the solution using 5 mmol/L PBS instead of the ABTS free radical working solution.

[2] = Oxygen radical antioxidant capacity (ORAC) assay; type: physicochemical; settings: 100 μM aqueous solutions
Procedure: (2) ORAC assay: (1) On a 96-well black plate, 25 μL each of PBS, Trolox standard solutions (12.5, 25, 50, and 100 μM) and aqueous solutions of five derivative peptides (100 μM) was added. The 96-well plate was placed and shaken in a microplate reader preheated for 30 min for 5 s, and incubated at 37° C. for 10 min. To each well, 150 μL each of FL working solution was added using a multi-channel pipette, and the plate was shaken for 5 s and incubated at 37° C. for 20 min. To each well, 25 μL each of AAPH was quickly added using the multi-channel pipette, and the plate was shaken for 5 s, followed by reading. The fluorescence intensity was continuously measured at an excitation wavelength of (485±20) nm and an emission wavelength of (530±20) nm. The whole system was held at 37° C., and the fluorescence intensity was measured every 2 min. Before each measurement, the well plate was shaken at a medium speed for 10 s, and the oscillation amplitude was 4 mm. The measurement was performed until the fluorescence intensity reached 5% of the initial fluorescence intensity (60 cycles were set in this assay). The relative fluorescence intensity is calculated by the area under the fluorescence decay curve (AUC) as follows: AUC=0.5×[2×(f0+f1 . . . +fn-1+fn)−f0−fn]×Δt
(1) In the formula, fn is the relative fluorescence intensity at the n-th measurement point; and Δt is the interval between adjacent time points, namely 2 min.
(2) The measurement results are expressed as ORAC values. The ORAC values of unknown samples are expressed in μmol TE/g. ORAC value=[(AUCSample−AUCBlank)/(AUCTrolox−AUCBlank)]×CTrolox/CSample.
Herein, AUCSample is the result of each of the aqueous solutions of five derivative peptides; AUCBlank is the result after adding 25 μL of PBS; AUCTrolox is the result after adding Trolox standard solution (100 μM); CTrolox is the molar concentration of Trolox, namely, 100 μM;
CSample is the molar concentration of each derivative peptide, calculated from the Trolox standard curve, where the Trolox standard curve is y=0.0756x+41.989, R^2=0.9931, the abscissa is the molar concentration of Trolox (12.5, 25, 50, or 100 μM), and the ordinate is AUCTrolox.

[3] = system: scopolamine-induced memory impairment model mice; assay: Morris water maze (place navigation and probe trial); type: in vivo, Male C57BL/6N mice
Procedure: In vivo studies were performed in accordance with the Guide for the Care and Use of Laboratory Animals published by the […]. Male C57BL/6N mice weighing 25-30 g were purchased from Liaoning Changsheng Biotechnology Co., Ltd. (Benxi, China). Mice were housed at a stable temperature (22±1° C.) under a 12 h/12 h light/dark cycle. The mice were given access to standard diet and water ad libitum. […]
A circular pool for Morris water maze (1,200 mm in diameter) was filled with warm water at 20±2° C., while a platform (65 mm diameter) was hidden in the Southwest (SW) quadrant 1 cm below the water surface. A mouse was gently placed in the Northeast (NE) quadrant facing the pool wall, the swimming trajectory of the mouse was recorded by the image acquisition system, and the time was measured for 120 s. The time it took to find the platform in the SW quadrant within 120 s was recorded as the latency, while the mouse that reached the platform was allowed to sit on the platform for 10 s and then returned to the holding cage. […] Subsequently, the time from the mice being placed in the water to finding the platform was analyzed and calculated according to the data acquisition system (see FIG. 2A). […]
After the place navigation was completed, the platform hidden in the water was taken out. A mouse was gently placed in the Northeast (NE) quadrant facing the pool wall, the swimming trajectory of the mouse was recorded by the image acquisition system, and the time was measured for 90 s. According to the data acquisition system, the time spent in the target quadrant (see FIG. 2B) and the frequency of original platform crossing (see FIG. 2C) within 90 s were analyzed and calculated on the mouse. […]

[4] = Thermal stability testing (RP-HPLC peak area); type: physicochemical; settings: 100 μM, pH 7.0, 20-100° C. water bath for 2 h
Procedure: Thermal Stability Testing (see FIG. 4A): • Step 1, the solid powder of derivative peptide WYSGK (SEQ ID NO:4) was dissolved in distilled water to prepare a 100 μM solution, the pH value was adjusted to 7.0, and the resulting solution was stored at 4° C. for later use; • Step 2, the derivative peptide WYSGK (SEQ ID NO: 4) solution in step 1 was divided into five tubes (1 mL/tube), and each tube was placed in a water bath at 20, 40, 60, 80, and 100° C. for 2 h; • Step 3, the blank group (the derivative peptide WYSGK (SEQ ID NO: 4) solution in step 1 without water bath treatment) and the derivative peptide WYSGK (SEQ ID NO:4) solution at each temperature were filtered through a 0.22 μm filter membrane; • Step 4, RP-HPLC was performed under the following conditions: detection wavelength: 220 nm; column temperature: 25° C.; mobile phase A: acetonitrile+0.1% (v/v) TFA; mobile phase B: acetonitrile+0.1% (v/v) TFA. Elution conditions were programmed as follows: 0-25 min, 10%-35% B (the value could be input in the liquid phase equipment); flow rate 1.0 mL/min; and • Step 5, the peak area in the liquid chromatogram was calculated to determine whether the derivative peptide WYSGK (SEQ ID NO:4) was degraded at different temperatures (refer to Liu Xintong's method, Sci. Technol. Food Ind., Vol. 41, No. 19, 2020).

[5] = Acid-base stability testing (RP-HPLC peak area); type: physicochemical; settings: 100 μM, pH 2, 4, 6, and 8, 37° C. for 2 h
Procedure: Acid-base Stability Testing (see FIG. 4B): • Step 1, the solid powder of derivative peptide WYSGK (SEQ ID NO: 4) was dissolved in distilled water to prepare a 100 μM solution, which was used as a blank group and stored at 4° C. for later use; • Step 2, the solid powder of derivative peptide WYSGK (SEQ ID NO: 4) was diluted with aqueous solutions with pH 2, 4, 6, and 8 to a concentration of 100 μmol/L, respectively, and the resulting solutions were incubated in a water bath at 37° C. for 2 h; • Step 3, the blank group and WYSGK (SEQ ID NO: 4) sample solutions at different pH were filtered through a 0.22 μm filter membrane; • Step 4, RP-HPLC was performed under the following conditions: detection wavelength: 220 nm; column temperature: 25° C.; mobile phase A: 100% acetonitrile+0.1% TFA; mobile phase B: 100% acetonitrile+0.1% TFA. Elution conditions were programmed as follows: 0-25 min, 10%-35% B (gradient elution); flow rate 1.0 mL/min; and • Step 5, the peak area in the liquid chromatogram was calculated to determine whether the derivative peptide WYSGK (SEQ ID NO: 4) was degraded at different pH (refer to Liu Xintong's method, Sci. Technol. Food Ind., Vol. 41, No. 19, 2020).

[6] = Simulated gastrointestinal digestion stability testing; type: in vitro ADME; settings: pepsin up to 2 h then trypsin up to 2 h, 37° C.
Text: […]

Row | Compound | ABTS free radical scavenging rate [1] [%] | ORAC value [2] | also measured
1 | Trp-Tyr-Glu-Gly-Lys (WYEGK; derivative peptide) | 54.48 | 5,422.29 μmol TE/g | –
2 | WYPGK: pine nut-derived antioxidant peptide, template for the derivative peptides (pine nut antioxidant peptide) | – | – | escape latency compared with the model group ([3]; place navigation, 5-day training, FIG. 2A): shorter escape latency; time spent in target quadrant compared with the model group ([3]; probe trial, within 90 s, FIG. 2B): significant decreases; frequency of original platform crossing compared with the model group ([3]; probe trial, within 90 s, FIG. 2C): significant decreases
3 | Trp-Tyr-Lys-Gly-Lys (WYKGK; derivative peptide) | 40.31 | 3,681.50 μmol TE/g | –
4 | NCCCC[C@H](NC(=O)CNC(=O)[C@H](CO)NC(=O)[C@H](Cc1ccc(O)cc1)NC(=O)[C@@H](N)Cc1c[nH]c2ccccc12)C(=O)O [WYSGK, Trp-Tyr-Ser-Gly-Lys] (H-WYSGK-OH; N-terminus and C-terminus assumed) | – | – | degradation at different temperatures (thermal stability) [4]: hardly degraded; degradation at different pH (acid-base stability) [5]: hardly degraded; retention rate of peptide content [6]: at least 93.45%
5 | Trp-Tyr-Phe-Gly-Lys (WYFGK; derivative peptide) | 36.56 | 3,762.05 μmol TE/g | –
6 | N[C@@H](CCC(=O)N[C@@H](CS)C(=O)NCC(=O)O)C(=O)O [GSH, reduced glutathione, reference compound] | 31.39 | 995.58 μmol TE/g | –
